Test [1] concerns Tat-dependent reactivation. Conditions: cited from earlier work.
The next test has as its system pre-miR-21. As to the kind of experiment: Single point ligand-detected NMR relaxation assay in low salt buffer (stage 1). The class given is binding. The conditions noted are these: 100 μM small molecule in low salt buffer, 10 μM RNA. From the text: (§1) For initial screening and hit identification, a relaxation edited ligand-detect method is used to detect binding under low salt conditions. These initial conditions are chosen to facilitate the discovery of even low affinity compounds with favorable chemical characteristics. Binding compounds are identified through changes in peak height when comparing spectra for RNA-free and RNA-bound ligand (FIG. 8). The change in peak height is proportional to the increase in ligand line width, compared to the free small molecule, which occurs upon binding to the larger biomolecule. This NMR method is agnostic to biomolecular target, as it only depends on the longer rotational correlation time (Tc) of the small molecule bound in a complex with a much larger biomolecular target, which has a much […] correlation time; other NMR methods (e.g., STD) can be used as well.
(§2) Stage 1. […] The free ligand linewidths of compounds dissolved at concentration of 100 μM were quantified and compared to the ligand linewidths observed after addition of 10 μM RNA target. […]
(§3) Small molecule hit identification and tiered approach to ligand-detected NMR screening. In order to identify small molecules that bind to RNA and quantify the strength of the interaction, a tiered approach to NMR screening involving both ligand- and target-detected NMR experiments was used. […]

In test [2] the test system is HIV TAR. Kind of test: Target-detected NMR (TOCSY, 1D imino spectra; stage 3). The conditions noted are these: chemical shift changes, TOCSY / 1D 1H imino spectra. The class given is binding, HIV-1. The method, then:
Stage 3. The third stage in the screening cascade involves monitoring changes in the NMR spectra of the RNA target to identity where on the target the compound binds and examine the structural characteristics of the interaction. This step is conducted in the same […] buffer used for screening, prepared either in 95% H2O/5% D2O (water buffer) or 99.99% D2O (D2O buffer) to monitor different classes of proton resonances (FIGS. 10A and 10B). Uniform labeling of bases with ^13C and ^15N can also be performed, but this is relatively expensive.
Target detect NMR assays to measure RNA-ligand interactions. Transcribed RNA sequences (at natural isotopic abundance, along with ^15N/^13C enriched or selectively labeled ^2H samples) are snap-cooled in 250-500 μL NMR buffer (50 mM d9 bis-Tris pH 6.5, 50 mM NaCl) by heating to 95° C. for 4 min then placed at −20° C. until frozen. All ligand stocks were dissolved in 10-20 mM H2O, D2O or DMSO depending on ligand solubility. […] Ligand interactions are detected by changes in chemical shift through a series of NMR experiments, including but not limited to 1D ^1H and 2D ^1H-^1H TOCSY, ^1H-^1H NOESY, ^1H-^1H EXSY, ^15N-^1H HSQC, and ^13C-^1H HSQC experiments, which are used to map the binding site of the ligand on the RNA. […]

The target in test [3] is HIV TAR. Kind of test: 2-aminopurine (2AP) fluorescence binding assay. The arrangement: species or system HIV-1. Conditions: 2AP-labeled HIV TAR, excess tRNA; single binding event; read-out: affinity by fitting Equation 1.
Protocol: The fourth stage in the screening cascade quantifies binding using an orthogonal biophysical method.
To quantify binding of the compounds to HIV TAR, a 2-amino purine method was used. In this assay, U25 on HIV TAR was substituted with 2-aminopurine and binding assays were conducted on a Horiba Tau fluorometer.
2-AP binding assays. Fluorescence intensity binding assays were conducted using a method based on the incorporation of a single fluorescent base analogue (2-amino-purine, 2AP) in place of U25 for HIV TAR, and by monitoring changes in the reporter emission fluorescence intensity at 362 nm upon small molecule titration. Each experiment was collected in duplicate with 50 nM 2AP-TAR titrated with 5 mL of ligand stock solutions prepared by serial dilution. Methods were followed with 250×fold excess yeast tRNA added to the buffer as a competitor to reduce non-specific binding. Data were collected on a Horiba FL3-21tau Fluorescence Spectrophotometer, exported to Graphpad Prism v.8.1.1 and fit to Equation 1.
where Y is the measured fluorescence at 362 nm, Yi is fluorescence of the fully bound target, Yo is the fluorescence of the unbound RNA, Rt is total RNA concentration, Lt is total ligand concentration and Kd is the binding affinity.
Test [4] relates to HIV TAR. Kind of test: Single point ligand-detected NMR relaxation assay in low salt buffer (stage 1). The class given is binding, HIV-1. The conditions noted are these: 100 μM small molecule in low salt buffer, 10 μM RNA.
From the text: as §1, §2, §3

Non-standard residues stand in square brackets, D forms with d. Agb = N=C(N)NCC[C@H](N)C(=O)O; Dab = NCC[C@H](N)C(=O)O

“cyclo(P(dab)VRTRKGRRI(NOR)Ip) (cyclo(P[Dab]VRTRKGRRI[Agb]I[dP])) [JB181]”: the “inhibition of Tat-dependent reactivation in cells” value in test [1] was “only moderately inhibits”.

For the compound `CN(C)C(=O)c1cc2cnc(Nc3ccc(N4CCNCC4)cn3)nc2n1C1CCCC1` [Ribociclib], in the test with pre-miR-21, the “single point binding response to pre-miR-21” value is “binding responses”. Besides, the “binding to HIV TAR by target-detected NMR (qualitative)” value in the test with HIV TAR [2] is “high nM binding”. Also, on HIV TAR [3], the Kd amounted to 215 ± 56 nM. Further, the “single point binding response to HIV TAR” value in the test with HIV TAR [4] is “binding responses”.

Values taken from patent US20230132667A1, “DRUG-LIKE MOLECULES AND METHODS FOR THE THERAPEUTIC TARGETING OF VIRAL RNA STRUCTURES” (UNIVERSITY OF WASHINGTON, priority 2020, published 2023).
